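Compound exposure: 48 hours, 5 concentrations, 96-well plates. GI50 is the concentration that inhibits growth by half. Definition used: TGI = concentration required for complete inhibition of growth.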
Columns and labels:
Experiment in all cases: NCI tumour cell line growth inhibition, 48 h
LOX IMVI melanoma = system: LOX IMVI melanoma
MALME-3M melanoma = system: MALME-3M melanoma
MCF7 breast = system: MCF7 breast
MDA-MB-231 breast = system: MDA-MB-231 breast
OVCAR-5 ovarian = system: OVCAR-5 ovarian
RXF 393 renal = system: RXF 393 renal
SF-295 CNS = system: SF-295 CNS
SK-MEL-28 melanoma = system: SK-MEL-28 melanoma
SW-620 colon = system: SW-620 colon
UACC-257 melanoma = system: UACC-257 melanoma

Structure (SMILES)	GI50 (LOX IMVI melanoma) [µM]	TGI (LOX IMVI melanoma) [µM]	GI50 (MALME-3M melanoma) [µM]	TGI (MALME-3M melanoma) [µM]	GI50 (MCF7 breast) [µM]	TGI (MCF7 breast) [µM]	GI50 (MDA-MB-231 breast) [µM]	TGI (MDA-MB-231 breast) [µM]	GI50 (OVCAR-5 ovarian) [µM]	TGI (OVCAR-5 ovarian) [µM]	GI50 (RXF 393 renal) [µM]	TGI (RXF 393 renal) [µM]	GI50 (SF-295 CNS) [µM]	TGI (SF-295 CNS) [µM]	GI50 (SK-MEL-28 melanoma) [µM]	TGI (SK-MEL-28 melanoma) [µM]	GI50 (SW-620 colon) [µM]	TGI (SW-620 colon) [µM]	GI50 (UACC-257 melanoma) [µM]	TGI (UACC-257 melanoma) [µM]
COc1c(OC2OC(C)C(O)C(O)C2O)c(OC)c2oc(-c3ccc(O)cc3)cc(=O)c2c1O (stereo not given)	27.9	> 100	34.2	> 100	34.4	> 100	16.5	71.8	> 100	> 100	23.8	66.5	36.4	> 100	35.4	> 100	35.7	> 100	3.97	28.1
C=C1C(=O)O[C@@H]2C[C@@H](C)[C@@H]3C=CC(=O)[C@@]3(C)[C@@H](OC(=O)CCCC(=O)O[C@H]3[C@@H]4C(=C)C(=O)O[C@@H]4C[C@@H](C)[C@@H]4C=CC(=O)[C@]43C)[C@H]12		0.152		0.0373		0.805		0.079		0.387		0.047		3.13		0.136		0.0432		0.271
C=C(CN1CCc2ccccc2C1)c1ccc(CCCC(=O)Nc2ccccc2N)cc1	9.15	21.7	11.7	25.7	8.45	> 100	10.2	26.3	26.5	80.2	17.1	35.7	14.6	39.9	15.7	29.7	15.6	32.1	17.4	42
Cc1nc(C(=O)OCc2ccccc2)cc(OCc2ccccc2)c1C	17.1	36	24.4	52.1	18.3	43.2	14.6	34.9	21.8	51.6	13.5	28	19.7	46.8	15.5	29.8	17.8	44.2	18.8	38.3
COC1CCC(OC)C(c2nc3sccn3c2/C=N/N=C(N)N)C1 (stereo not given)	28.5	67.4	1.7	23.8	20.1	45	1.68	32.8	2.84	> 51.7	24.8	> 82.9	16.5	34.1	34.9	> 94.4	19.4	53.1	5.61	44.1
Cc1cc(C)nc(NC(=O)COc2ccc(Cl)cc2)c1		> 100		> 100		> 100		> 100		> 100		> 100		> 100		> 100		> 100		> 100
COc1cc(C=NCC(=O)CSC(c2ccccc2)c2ccccc2)ccc1O	10.5	23.5	6.11	22.4	21.2	> 100	12.8	26.7	16.4	30.4	13.4	26.8	14.6	46.9	14.4	27.6	15.5	31.4	5.94	18.7
C/C(=N\NC(=S)N1CCCC1)c1ccccn1	< 0.01	11.1	< 0.0349	1.64	< 0.01	7.55	< 0.0348	16.2	0.0763	14.8	0.188	7.14	< 0.01	5.9	0.32	13.7	< 0.01	16.8	< 0.01	0.166
COc1ccc2c(c1)[n+](=O)c(/C=C/C(=O)c1cc(OC)c(OC)c(OC)c1)c(C)n2[O-]	3.95	28.6	17	> 100	3.14	> 100	12.6	88.4	28.7	> 100	3.98	> 100	44.8	> 100	12.3	50.9	4.03	47.6	9.61	> 100
COc1ccc(C(=O)c2ccccc2)c(O)c1	92	> 100	61.4	> 100	> 100	> 100	> 100	> 100	> 100	> 100	41	> 100	36	> 100	> 100	> 100	> 100	> 100	> 100	> 100

— PubChem BioAssay (NCI)
